Columns and labels:
SCD-1 = target: T1, SCD-1 (Homo sapiens, UniProt O00767); assay: Human enzymatic activity of SCD-1 from microsomes of HepG2 cells (conversion of [14C] stearic acid to oleic acid, HPLC); assay type: biochemical; conditions: microsomal fraction of HepG2 cells, 62 μM stearic acid, 20 minutes at 37° C., vs vehicle 0.1% DMSO; read-out: HSCD-1 (HEPG2) IC50
T1 construct: addition of 125 μg of microsomal fraction of HepG2 cells; host or cells: HepG2 human hepatocarcinoma cells (microsomal fraction)
T1 sequence (O00767 1-359): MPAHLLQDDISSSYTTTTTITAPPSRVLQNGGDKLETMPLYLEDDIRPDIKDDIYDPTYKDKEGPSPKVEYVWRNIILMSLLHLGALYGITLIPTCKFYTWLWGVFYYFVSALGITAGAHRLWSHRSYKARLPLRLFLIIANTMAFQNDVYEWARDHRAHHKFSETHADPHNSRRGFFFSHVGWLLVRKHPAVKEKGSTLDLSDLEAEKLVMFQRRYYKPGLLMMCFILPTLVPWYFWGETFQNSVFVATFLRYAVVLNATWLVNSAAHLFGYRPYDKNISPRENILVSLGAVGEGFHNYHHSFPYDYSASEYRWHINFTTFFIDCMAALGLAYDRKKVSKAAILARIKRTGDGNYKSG
Experimental: In vitro: Human enzymatic activity of SCD-1 from microsomes of HepG2 cells after treatment with the inhibitor compounds (% inhibition).
HepG2 cells of human hepatocarcinoma (ATCC, HB-8065) are cultured at confluence then trypsinated. The cell residue is solubilized in 10 mM Tris buffer (pH 7.4) sucrose (250 mM) DTT (1 mM) then the cells are lysed by sonication. The microsomes are obtained after centrifuging at 10,000 g for 20 minutes at 4° C. followed by centifrugation of the supernatant at 100,000 g for 60 minutes at 4° C. The residue is solubilized in 10 mM Tris buffer (pH 7.4) sucrose (250 mM) at 4° C. and the microsomal proteins are assayed and stored at −196° C. (liquid nitrogen).
The enzymatic reaction measures the conversion of stearic acid (C18:0 fatty acid) into oleic acid (C18:1 fatty acid) by SCD-1. The enzymatic reaction is initiated by the addition of 125 μg of microsomal fraction of HepG2 cells to tubes (total reaction volume of 500 μl) containing 62 μM stearic acid (45 μM stearic acid and 17 μM [^14C] stearic acid) in 100 mM phosphate buffer (pH 7.16) with 7.2 mM ATP, 0.54 mM CoA, 6 mM MgCl2, 0.8 mM NADH and the inhibitor compound or vehicle (0.1% DMSO). The tubes are incubated for 20 minutes at 37° C. then the enzymatic reaction is halted by the addition of KOH (12%) and saponification for 30 minutes at 80° C. After acidification (3N HCl), the fatty acids are extracted twice with ethyl ether, evaporated under nitrogen before being solubilized in methanol/dichloromethane (3:1). The reaction product (C18:1) is separated from the reaction substrate (C18:0) by HPLC (Perkin Elmer, C18 reverse phase column) coupled with an in-line radioactivity detector (FlowOne). Enzymatic activity is measured in picomoles of stearic acid converted to oleic acid per minute and per mg of protein. For each inhibitor compound, an IC50 value is determined, compared with the reference enzymatic activity (vehicle 0.1% DMSO). Sterculic acid is the reference inhibitor compound (Gomez F. E., Bauman D. E., Ntambi J. M., Fox B. G. Effects of sterculic acid on stearoyl-CoA desaturase in differentiating […] adipocytes. Biochem Biophys Res Commun. 300 316-326 (2003).

melting point	IC50 (SCD-1)	SMILES
50 °C	100 to 1000 nM	Cn1nccc(NCC(=O)N2CCC(Oc3ccccc3C(F)(F)F)CC2)c1=O [Example 1, 2-Methyl-4-{2-oxo-2-[4-(2-trifluoromethyl-phenoxy)-piperidin-1-yl]-ethylamino}-2H-pyridazin-3-one]
140 °C	30 to 100 nM	Cn1nccc(NCC(=O)N2CCC(Oc3cc(F)ccc3C(F)(F)F)CC2)c1=O [Example 2, 4-{2-[4-(5-Fluoro-2-trifluoromethyl-phenoxy)-piperidin-1-yl]-2-oxo-ethylamino}-2-methyl-2H-pyridazin-3-one]
160 °C	–	Cn1nccc(NCC(=O)N2CCC(Oc3cc(F)ccc3F)CC2)c1=O [Example 13, 4-{2-[4-(2,5-Difluoro-phenoxy)-piperidin-1-yl]-2-oxo-ethylamino}-2-methyl-2H-pyridazin-3-one]
160 °C	–	Cn1nccc(NCC(=O)N2CCC(Oc3ccccc3[N+](=O)[O-])CC2)c1=O [Example 15, 2-Methyl-4-{2-[4-(2-nitro-phenoxy)-piperidin-1-yl]-2-oxo-ethylamino}-2H-pyridazin-3-one]
–	3000 to 10000 nM	CN(CC(=O)N1CCC(Oc2ccccc2Cl)CC1)c1ccnn(C)c1=O [Example 18, 4-({2-[4-(2-Chloro-phenoxy)-piperidin-1-yl]-2-oxo-ethyl}-methyl-amino)-2-methyl-2H-pyridazin-3-one]
245 to 260 °C	–	Cn1ncc(NCC(=O)N2CCC(Oc3ccccc3C(F)(F)F)CC2)cc1=O [Example 19, 2-Methyl-5-{2-oxo-2-[4-(2-trifluoromethyl-phenoxy)-piperidin-1-yl]-ethylamino}-2H-pyridazin-3-one]
–	~10000 nM	Cn1ncc(NCC(=O)N2CCC(Oc3cc(F)ccc3Cl)CC2)cc1=O [Example 20, 5-{2-[4-(2-Chloro-5-fluoro-phenoxy)-piperidin-1-yl]-2-oxo-ethylamino}-2-methyl-2H-pyridazin-3-one]
126 °C	–	Cn1nccc(OCC(=O)N2CCC(Oc3ccccc3OC(F)(F)F)CC2)c1=O [Example 21, 2-Methyl-4-{2-oxo-2-[4-(2-trifluoromethoxy-phenoxy)-piperidin-1-yl]-ethoxy}-2H-pyridazin-3-one]
135 °C	–	Cn1nccc(OCC(=O)N2CCC(Oc3ccc(F)cc3Cl)CC2)c1=O [Example 22, 4-{2-[4-(2-Chloro-4-fluoro-phenoxy)-piperidin-1-yl]-2-oxo-ethoxy}-2-methyl-2H-pyridazin-3-one]
192 °C	–	CC(=O)c1ccc(F)cc1OC1CCN(C(=O)COc2ccnn(C)c2=O)CC1 [Example 23, 4-{2-[4-(2-Acetyl-5-fluoro-phenoxy)-piperidin-1-yl]-2-oxo-ethoxy}-2-methyl-2H-pyridazin-3-one]
140 °C	–	Cn1ncc(OCC(=O)N2CCC(Oc3ccc(Cl)cc3Cl)CC2)cc1=O [Example 26, 5-{2-[4-(2,4-Dichloro-phenoxy)-piperidin-1-yl]-2-oxo-ethoxy}-2-methyl-2H-pyridazin-3-one]
155 °C	–	CN(Cc1ccc(Cl)c(Cl)c1)C1CCN(C(=O)CNc2ccnn(C)c2=O)CC1 [Example 28, 4-(2-{4-[(3,4-Dichloro-benzyl)-methyl-amino]-piperidin-1-yl}-2-oxo-ethylamino)-2-methyl-2H-pyridazin-3-one]
210 °C	–	Cn1nccc(NCC(=O)N2CCN(C(=O)c3cc(F)ccc3C(F)(F)F)CC2)c1=O [Example 29, 4-{2-[4-(5-Fluoro-2-trifluoromethyl-benzoyl)-piperazin-1-yl]-2-oxo-ethylamino}-2-methyl-2H-pyridazin-3-one]
170 °C	–	Cn1nccc(NCC(=O)N2CCN(C(=O)c3ccccc3C(F)(F)F)CC2)c1=O [Example 30, 2-Methyl-4-{2-oxo-2-[4-(2-trifluoromethyl-benzoyl)-piperazin-1-yl]-ethylamino}-2H-pyridazin-3-one]
174 °C	–	Cn1nccc(NCC(=O)N2CC(COc3cc(C(F)(F)F)ccc3Cl)C2)c1=O [Example 33, 4-{2-[3-(2-Chloro-5-trifluoromethyl-phenoxymethyl)-azetidin-1-yl]-2-oxo-ethylamino}-2-methyl-2H-pyridazin-3-one]
–	300 nM	Cn1nccc(CCC(=O)N2CCC(Oc3cc(C(F)(F)F)ccc3Cl)CC2)c1=O [Example 37, 4-{3-[4-(2-Chloro-5-trifluoromethyl-phenoxy)-piperidin-1-yl]-3-oxo-propyl}-2-methyl-2H-pyridazin-3-one]
70 °C	–	C[C@@H](Nc1ccnn(C)c1=O)C(=O)N1CCC(Oc2cc(C(F)(F)F)ccc2Cl)CC1 [Example 38, 4-{(R)-2-[4-(2-Chloro-5-trifluoromethyl-phenoxy)-piperidin-1-yl]-1-methyl-2-oxo-ethylamino}-2-methyl-2H-pyridazin-3-one]
70 °C	–	C[C@H](Nc1ccnn(C)c1=O)C(=O)N1CCC(Oc2cc(C(F)(F)F)ccc2Cl)CC1 [Example 39, 4-{(S)-2-[4-(2-Chloro-5-trifluoromethyl-phenoxy)-piperidin-1-yl]-1-methyl-2-oxo-ethylamino}-2-methyl-2H-pyridazin-3-one]
–	10 to 100 nM	O=C(CNc1ccn[nH]c1=O)N1CCC(Oc2cc(Cl)ccc2Cl)CC1 [Example 41, 4-{2-[4-(2,5-dichloro-phenoxy)-piperidin-1-yl]-2-oxo-ethylamino}-2H-pyridazin-3-one]
–	10 to 100 nM	O=C(CNc1ccn[nH]c1=O)N1CCC(Oc2cc(Br)ccc2Cl)CC1 [Example 42, 4-{2-[4-(5-Bromo-2-Chloro-phenoxy)-piperidin-1-yl]-2-oxo-ethylamino}-2H-pyridazin-3-one]
–	10 to 100 nM	O=C(CNc1ccn[nH]c1=O)N1CCC(Oc2cc(F)c(F)cc2Br)CC1 [Example 43, 4-{2-[4-(2-Bromo-4,5-difluoro-phenoxy)-piperidin-1-yl]-2-oxo-ethylamino}-2H-pyridazin-3-one]
–	100 to 1000 nM	O=C(CNc1ccn[nH]c1=O)N1CCC(Oc2cccc(C(F)(F)F)c2)CC1 [Example 44, 4-{2-[4-(3-trifluoromethyl-phenoxy)-piperidin-1-yl]-2-oxo-ethylamino}-2H-pyridazin-3-one]
–	100 to 1000 nM	O=C(CNc1ccnn(CCCC(F)(F)F)c1=O)N1CCC(Oc2cc(C(F)(F)F)ccc2Cl)CC1 [Example 45, 4-{2-[4-(2-Chloro-5-trifluoromethyl-phenoxy)-piperidin-1-yl]-2-oxo-ethylamino}-2-(4,4,4-trifluoro-butyl)-2H-pyridazin-3-one]
–	1000 nM	CC#CCn1nccc(NCC(=O)N2CCC(Oc3cc(C(F)(F)F)ccc3Cl)CC2)c1=O [Example 46, 2-But-2-ynyl-4-{2-[4-(2-chloro-5-trifluoromethyl-phenoxy)-piperidin-1-yl]-2-oxo-ethylamino}-2H-pyridazin-3-one]
–	300 to 1000 nM	CC(C)CCCn1nccc(NCC(=O)N2CCC(Oc3cc(C(F)(F)F)ccc3Cl)CC2)c1=O [Example 47, 4-{2-[4-(2-Chloro-5-trifluoromethyl-phenoxy)-piperidin-1-yl]-2-oxo-ethylamino}-2-(4-methyl-pentyl)-2H-pyridazin-3-one]
–	1000 to 10000 nM	O=C(CNc1ccnn(Cc2ccccc2)c1=O)N1CCC(Oc2ccccc2C(F)(F)F)CC1 [Example 48, 2-Benzyl-4-{2-oxo-2-[4-(2-trifluoromethyl-phenoxy)-piperidin-1-yl]-ethylamino}-2H-pyridazin-3-one]
180 °C	–	CC(C)n1nccc(NCC(=O)N2CCC(Oc3ccccc3C(F)(F)F)CC2)c1=O [Example 49, 2-Isopropyl-4-{2-oxo-2-[4-(2-trifluoromethyl-phenoxy)-piperidin-1-yl]-ethylamino}-2H-pyridazin-3-one]
82 °C	–	CCCCn1nccc(NCC(=O)N2CCC(Oc3ccccc3Cl)CC2)c1=O [Example 50, 2-Butyl-4-{2-[4-(2-chloro-phenoxy)-piperidin-1-yl]-2-oxo-ethylamino}-2H-pyridazin-3-one]
–	300 nM	CCCCCCCCC1=C(CCCCCCCC(=O)O)C1 [Sterculic acid, reference compound]

Source: US8946225B2, “Derivatives of 2H pyridazin-3-ones, their preparation and their use as SCD-1 inhibitors” (Pierre Fabre Medicament, priority 2009, dated 2015)
